Data reported in patent publication US8575357B2, “Substituted (thiazolyl-carbonyl)imidazolidinones and use thereof” (AiCuris GmbH & Co. KG, priority 2009, dated 2013).

Key:
[1] = test system: HIV-1NL4-3 reporter virus, wild-type; experiment: Light assay with wild-type HI reporter virus in MT4 7F2 cells; type: cell-based; conditions: Human immunodeficiency virus 1, 120 h, read-out: EC50 (nM) MT4 7F2 cells HIV-1NL4-M3 wt 2% FCS
Experimental: (§1) For the mixture for a 96-well MTP, 3 million MT4 7F2 cells are pelleted, suspended in 1 ml of RPMI 1640 medium without phenol red (Invitrogen, Karlsruhe, Germany)/10% FCS/10% AIM-V (Invitrogen, Karlsruhe, Germany) and incubated together with a suitable amount of the corresponding HIV-1NL4-3 reporter virus at 37° C. for 2 hours (pellet infection). Unadsorbed viruses are subsequently washed out with PBS, and the infected cells are pelleted again and suspended in 8 ml of RPMI 1640 medium without phenol red/2% or 10% FCS/10% AIM-V. 80 μl thereof are pipetted into each well of a white 96-well MTP with 20 μl of test substance in suitable dilution. To avoid edge effects, the wells on the edge of the MTP are not used for substance dilutions. The second vertical row of the MTP contains only infected cells (virus control) and the eleventh vertical row only uninfected cells (cell control), in each case in RPMI 1640 medium without phenol red/2% or 10% FCS/10% AIM-V. The other wells of the MTP contain the compounds of the invention in various concentrations starting from the third vertical row, from which the test substances are diluted in 3-fold steps up to the tenth vertical row 3^7-fold. The test substances are dissolved in DMSO, whereby the final DMSO concentration in the test mixture is 1%. The test mixtures are incubated at 37° C./5% CO2 for five days and, after the addition of 15 μl of Lu164 substrate (5 mg/ml coelenterazine dissolved in 30 μM glutathione/DMSO, 100 mM NaCl, 1M MES, 100 mM glutathione), evaluated by luminometry. The resulting values are in the region of 1 000 000 RLUs (relative light units) for the virus control and 300 to 400 RLUs for the cell control. The EC50 values of the test substances are determined as the concentration at which the virus replication measured in RLUs is 50% of the untreated infected cells.

[2] = test system: HIV-1NL4-3 reporter virus, reverse transcriptase mutations K103N-Y181C; experiment: Light assay with inhibitor-resistant HI reporter virus in MT4 7F2 cells; type: cell-based; conditions: Human immunodeficiency virus 1, 120 h, read-out: EC50 (nM) MT4 7F2 cells HIV-1NL4-M3 K103N-Y181C 2% FCS
Experimental: as §1

reverse transcriptase = target: T1, reverse transcriptase (Human immunodeficiency virus type 1 group M subtype B, UniProt P04585); experiment: Biochemical reverse transcriptase assay (Reverse Transcriptase Assay, colorimetric, Roche); conditions: colorimetric RT assay, final DMSO 1%; read-out: IC50 (nM) RT assay
T1 construct: negative control (mixture without reverse transcriptase); purchased Roche Diagnostics GmbH, Mannheim, Germany
Experimental: The “Reverse Transcriptase Assay, colorimetric” (Roche Diagnostics GmbH, Mannheim, Germany) is used in accordance with the manufacturer's information. The test substances are dissolved in DMSO and are used in the test diluted in 5-fold steps (final DMSO concentration 1%). The resulting values of the photometric evaluation (405/492 nm) are less than 0.1 for the negative control (mixture without reverse transcriptase) and are in the region of 1.5 for the positive control (mixture without test substance). The IC50 values of the test substances are determined as the concentration of the test substance dilution at which the measured optical density is 50% of the positive control.

HIV-1LAI = experiment: H9 assay with wild-type HIV-1 (HIV-1LAI supernatant infection, AlamarBlue); type: cell-based; conditions: Human immunodeficiency virus 1, 120 h, H9 cells, 10% FCS, 5 days
Experimental: For the mixture for a 96-well MTP, 3 million PBLs are pelleted, suspended in 1 ml of RPMI 1640 medium/10% FCS and incubated together with a suitable amount of HIV-1LAI (NIH AIDS Research & Reference Reagent Program, Germantown, USA) at 37° C. for 2 hours (pellet infection). Unadsorbed viruses are subsequently washed out with PBS, and the infected cells are pelleted again and suspended in 18 ml of RPMI 1640 medium/10% FCS/interleukin-2 (40 U/ml). 180 μl thereof are pipetted into each well of a white 96-well MTP with 20 μl of test substance in suitable dilution. Alternatively, after preparation of the substance dilutions in the MTP, the HIV is pipetted in together with the cells and is not washed out again (supernatant infection). In order to avoid edge effects, the wells at the edge of the MTP are not used for substance dilutions. The second vertical row of the MTP contains only infected cells (virus control) and the eleventh vertical row only uninfected cells (cell control), in each case in RPMI 1640 medium/10% FCS/interleukin-2 (40 U/ml). The other wells of the MTP contain the compounds of the invention in various concentrations starting from the third vertical row, from which the test substances are diluted in 3-fold steps up to the tenth vertical row 3^7-fold. The test substances are dissolved in DMSO, whereby the final DMSO concentration in the test mixture is 1%. The test mixtures are incubated at 37° C./5% CO2. After 5 and 7 days, 50 μl of cell-free supernatant are removed from each well to determine the amount of p24 present by means of a p24 ELISA (HIV-1 p24^CA Antigen Capture Assay Kit, NCI-Frederick Cancer Research and Development Center, Frederick, USA). From the resulting values of the photometric evaluation (450/620 nm) the EC50 values of the test substances are determined as the concentration at which the amount of p24 is 50% of the untreated infected cells.
Alternatively, H9 cells (ATCC, Wesel, Germany) are employed instead of PBLs for testing the test substances. H9 cells are incubated in RPMI 1640 medium with 2% or 10% FCS as a HIV-1LAI supernatant infection at 37° C./5% CO2, (20 μl of substance dilution and 80 μl of cells/virus per well) in accordance with the pattern described above for 5 days. Subsequently, 10 μl of AlamarBlue (Invitrogen, Karlsruhe, Germany) are added to each well, and the MTPs are incubated at 37° C. for 3 hours before the fluorimetric evaluation takes place (544/590 nm). The resulting values are about 40 000 for the untreated uninfected cells and about 7000 for the untreated infected cells. In the low concentration range, the EC50 values of the test substances are determined as the concentration at which the fluorescence is 50% of the untreated uninfected cells (in each case subtracting the values of the untreated infected cells). In addition, in the high concentration range, the CC50 values of the test substances are determined as the concentration at which the fluorescence is 50% of the untreated uninfected cells (in each case subtracting the values of the untreated infected cells).

Row | Compound | EC50 [1] [nM] | EC50 [2] [nM] | IC50 (reverse transcriptase) [nM] | EC50 (HIV-1LAI) [nM]
1 | O=C1CN(C(=O)c2nc(-c3ccc(F)c(Cl)c3)c(-c3cc(F)cc(Cl)c3)s2)CN1 [Example 1, 1-{[4-(3-Chloro-4-fluorophenyl)-5-(3-chloro-5-fluorophenyl)-1,3-thiazole-2-yl]carbonyl}imidazolidin-4-one] | 2 | 55 | 61 | 14
2 | O=C1CN(C(=O)c2nc(-c3ccc(F)c(Cl)c3)c(-c3cccc(Cl)c3)s2)CN1 [Example 2, 1-{[4-(3-Chloro-4-fluorophenyl)-5-(3-chlorophenyl)-1,3-thiazole-2-yl]carbonyl}imidazolidin-4-one] | 4 | 91 | 17 | 30
3 | O=C1CN(C(=O)c2nc(-c3cccc(Cl)c3)c(-c3ccc(F)c(Cl)c3)s2)CN1 [Example 4, 1-{[5-(3-Chloro-4-fluorophenyl)-4-(3-chlorophenyl)-1,3-thiazole-2-yl]carbonyl}imidazolidin-4-one] | 10 | 143 |  | 80
4 | N#Cc1cc(-c2sc(C(=O)N3CNC(=O)C3)nc2-c2cccc(Cl)c2)ccc1F [Example 5, 5-{4-(3-Chlorophenyl)-2-[(4-oxoimidazolidin-1-yl)carbonyl]-1,3-thiazole-5-yl}-2-fluorobenzenecarbonitrile] | 38 | 228 |  | 80
5 | O=C1CN(C(=O)c2nc(-c3cc(F)cc(Cl)c3)c(-c3cccc(Cl)c3)s2)CN1 [Example 6, 1-{[4-(3-Chloro-5-fluorophenyl)-5-(3-chlorophenyl)-1,3-thiazole-2-yl]carbonyl}imidazolidin-4-one] | 58 | 282 |  | 95
6 | N#Cc1cccc(-c2sc(C(=O)N3CNC(=O)C3)nc2-c2cccc(Cl)c2)c1 [Example 7, 3-{4-(3-Chlorophenyl)-2-[(4-oxoimidazolidin-1-yl)carbonyl]-1,3-thiazole-5-yl}benzenecarbonitrile] | 36 | 303 |  | 20
7 | O=C1CN(C(=O)c2nc(-c3cccc(Cl)c3)c(-c3cccc(C(F)(F)F)c3)s2)CN1 [Example 8, 1-({4-(3-Chlorophenyl)-5-[3-(trifluoromethyl)phenyl]-1,3-thiazole-2-yl}carbonyl)imidazolidin-4-one] | 46 | 142 |  | 
8 | N#Cc1cc(-c2sc(C(=O)N3CNC(=O)C3)nc2-c2ccc(F)c(Cl)c2)ccc1F [Example 9, 5-{4-(3-Chloro-4-fluorophenyl)-2-[(4-oxoimidazolidin-1-yl)carbonyl]-1,3-thiazole-5-yl}-2-fluorobenzenecarbonitrile] | 35 | 118 |  | 40
9 | N#Cc1cccc(-c2sc(C(=O)N3CNC(=O)C3)nc2-c2ccc(F)c(Cl)c2)c1 [Example 10] | 4 | 70 |  | 5
10 | N#Cc1cc(F)cc(-c2nc(C(=O)N3CNC(=O)C3)sc2-c2cc(F)cc(Cl)c2)c1 [Example 12, 3-{5-(3-Chloro-5-fluorophenyl)-2-[(4-oxoimidazolidin-1-yl)carbonyl]-1,3-thiazole-4-yl}fluorobenzenecarbonitrile] | 29 | 119 |  | 80
11 | N#Cc1cc(-c2nc(C(=O)N3CNC(=O)C3)sc2-c2cc(F)cc(Cl)c2)ccc1F [Example 13, 5-{5-(3-Chloro-5-fluorophenyl)-2-[(4-oxoimidazolidin-1-yl)carbonyl]-1,3-thiazole-4-yl}-2-fluorobenzenecarbonitrile] | 0.6 | 43 |  | 2
12 | N#Cc1cc(-c2nc(C(=O)N3CNC(=O)C3)sc2-c2cccc(Cl)c2)ccc1F [Example 14, 5-{5-(3-Chlorophenyl)-2-[(4-oxoimidazolidin-1-yl)carbonyl]-1,3-thiazole-4-yl}-2-fluorobenzenecarbonitrile] | 1 | 49 |  | 4
13 | N#Cc1cc(F)cc(-c2sc(C(=O)N3CNC(=O)C3)nc2-c2ccc(F)c(C#N)c2)c1 [Example 15, 5-{5-(3-Cyano-5-fluorophenyl)-2-[(4-oxoimidazolidin-1-yl)carbonyl]-1,3-thiazole-4-yl}-2-fluorobenzenecarbonitrile] | 9 | 87 |  | 2
14 | N#Cc1cccc(-c2sc(C(=O)N3CNC(=O)C3)nc2-c2ccc(F)c(C#N)c2)c1 [Example 16, 5-{5-(3-Cyanophenyl)-2-[(4-oxoimidazolidin-1-yl)carbonyl]-1,3-thiazole-4-yl}-2-fluorobenzenecarbonitrile] | 15 | 123 |  | 2
15 | N#Cc1cccc(-c2nc(C(=O)N3CNC(=O)C3)sc2-c2cccc(Cl)c2)c1 [Example 17] | 0.5 | 64 |  | 2
16 | N#Cc1cccc(-c2nc(C(=O)N3CNC(=O)C3)sc2-c2cc(F)cc(Cl)c2)c1 [Example 18, 3-{5-(3-Chloro-5-fluorophenyl)-2-[(4-oxoimidazolidin-1-yl)carbonyl]-1,3-thiazole-4-yl}benzenecarbonitrile] | 0.4 | 38 |  | 1
17 | N#Cc1cccc(-c2nc(C(=O)N3CNC(=O)C3)sc2-c2cccc(C#N)c2)c1 [Example 19, 3,3′-{2-[(4-Oxoimidazolidin-1-yl)carbonyl]-1,3-thiazole-4,5-diyl}benzenecarbonitrile] | 2 | 94 |  | 1
18 | N#Cc1cc(F)cc(-c2sc(C(=O)N3CNC(=O)C3)nc2-c2cccc(Cl)c2)c1 [Example 21, 3-{4-(3-Chlorophenyl)-2-[(4-oxoimidazolidin-1-yl)carbonyl]-1,3-thiazole-5-yl}-5-fluorobenzenecarbonitrile] | 2 | 79 |  | 2
